{"source": "patent US10052304B2", "about": "“Compositions and methods for cancer therapy” (UNIVERSITY OF IOWA RESEARCH FOUNDATION, priority 2015, dated 2018)", "key": {"[1]": {"tested_on": "H1299 cells", "test": "Clonogenic survival assay, H1299 NSCLC cells", "format": "cell-based, human", "conditions": "agent added before and/or during 1 h ascorbate exposure", "protocol": "(§1) Treatment conditions for individual experiments are as described in the figure legends and summarized in the Supplemental Experimental Procedures.\n(§2) 1-2×10^5 cells were plated in 60 mm cell culture dishes and grown in their respective media for 48 h before exposed to experimental conditions. […] For AdGPx1 experiments, cells were supplemented with 50 nM sodium selenite following transduction and throughout clonogenic growth. […] After treatment, cells were washed with PBS and clonogenic assay was completed in their respective media. Briefly, floating and attached cells were collected and total cells per plate were counted. An experimentally derived number of cells were plated into each well of a 6-well cell culture plate in their respective media. For HEL92.1.7 suspension cells, cells were seeded in a top layer of 0.4% (w/v) agarose to allow for quantifiable colony formation. […] Normalized survival fractions were calculated by comparing plating efficiencies of each treatment group against the control group within a given experiment."}, "[2]": {"tested_on": "NCI-H292 cells", "test": "Clonogenic survival assay, NCI-H292 NSCLC cells", "format": "cell-based, human", "conditions": "for effect of the agent on ascorbate toxicity (clonogenic survival): agent added before and/or during 1 h ascorbate exposure; for effect of the intracellular agent on ascorbate toxicity (clonogenic survival): 3 h pre-incubation, washed prior to ascorbate ('intracellular'), 200 μM DFO/1 mM DTPA, 1 mM EDTA or 250 μM FAS", "protocol": "as §1, §2"}, "[3]": {"tested_on": "cancer cells", "conditions": "following exposure"}, "[4]": {"tested_on": "human non-small cell lung cancer cells", "test": "Clonogenic cell killing of lung cancer cells by ascorbate with chelators (cell line not given)", "format": "cell-based"}, "[5]": {"tested_on": "NHA", "conditions": "FAS 3 h, washed, then ascorbate 1 h", "protocol": "After treatment, cells were washed with PBS and clonogenic assay was completed in their respective media as previously described (Fath et al., 2011). Treatment conditions for individual experiments are as described in the figure legends and summarized in the Supplemental Experimental Procedures.\nas §2, with “formation. After sufficient time (7-12 days, cell type-dependent), cells were fixed in 70% ethanol and stained with a Brilliant Blue methanol solution.” for “formation.”"}, "[6]": {"tested_on": "NHAs", "test": "Cellular labile iron pool (Calcein-AM flow cytometry), NHAs", "format": "cell-based, human", "conditions": "100 μM or 250 μM FAS for 3 h", "protocol": "The labile iron pool (LIP) was visualized using the fluorescent dye Calcein-AM as previously described (Epsztejn et al., 1997) with modifications. After labeling, samples were divided into two flow cytometry sample tubes, to which 100 μM 2′,2′-bipyridyl (BIP) was added to one tube and analyzed by flow cytometry. BIP tubes were incubated for at least 15 minutes before analysis to allow for full chelation of intracellular labile iron. The LIP (A.U.)=MFIBIP−MFINoBIP was normalized against the control samples to calculate the relative labile iron pool.\nThe labile iron pool (LIP) was visualized using the fluorescent dye Calcein-AM as previously described with modifications (Epsztejn et al., 1997). Briefly, after sample treatment, cells were trypsinized, spun at 1,200 rpm for 5 min, and resuspended at approximately 1×10^6 cells mL-1 in 500 nM Calcein-AM in PBS. Samples were incubated for 15 min at 4% O2 in a humidity controlled environment (37° C., 5% CO2). Subsequently, samples were pelleted, washed in PBS, and resuspended in 1 mL PBS before dividing each sample into two flow cytometry sample tubes, to which 100 μM 2′,2′-bipyridyl (BIP) was added to one tube. Samples were kept at room temperature and analyzed on a LSR II Flow Cytometer (BD Biosciences; λex=488 nm, λem=515/20 nm). […]"}, "[7]": {"tested_on": "U87 cells", "test": "Clonogenic survival assay, U87 GBM cells", "format": "cell-based, human", "conditions": "agent added before and/or during 1 h ascorbate exposure", "protocol": "as §1, §2"}, "[8]": {"tested_on": "U118 cells", "test": "Clonogenic survival assay, U118 GBM cells", "format": "cell-based, human", "conditions": "agent added before and/or during 1 h ascorbate exposure", "protocol": "as §1, §2"}}, "data": [{"molecule": "O=CC[C@@H](O)[C@H](O)[C@H](O)CO", "note": "[2-DG, 2-deoxy-D-glucose]", "values": [{"measurement": "effect of the agent on ascorbate toxicity (clonogenic survival)", "setting": "[1]", "value": "did not suppress ascorbate toxicity"}, {"measurement": "effect of the agent on ascorbate toxicity (clonogenic survival)", "setting": "[2]", "value": "did not suppress ascorbate toxicity"}]}, {"molecule": "O=C(O)CN(CCN(CC(=O)O)CC(=O)O)CC(=O)O", "note": "[EDTA, ethylenediaminetetraacetic acid]", "values": [{"measurement": "effect of the intracellular agent on ascorbate toxicity (clonogenic survival)", "setting": "[2]", "value": "enhanced ascorbate toxicity"}, {"measurement": "cellular retention of 14C labeled EDTA", "setting": "[3]", "value": "retained with cancer cells following exposure"}, {"measurement": "effect of EDTA on cytotoxicity of pharmacological ascorbate", "setting": "[4]; EDTA 1 mM and greater, cell culture", "value": "significantly enhance the cytotoxicity of pharmacological ascorbate"}, {"measurement": "enhanced ascorbate toxicity after EDTA pretreatment and wash-out", "setting": "[4]; EDTA pretreatment followed by washing out", "value": "sufficient to get enhanced toxicity"}, {"measurement": "clonogenic cell survival", "setting": "[4]; high dose EDTA + pharmacological ascorbate + standard-of-care chemotherapy vs standard of care alone, two NSCLC cell lines", "value": "decreases clonogenic cell survival"}, {"measurement": "effect of iron chelators on ascorbate toxicity / response to therapy (FIG. 8)", "setting": "[4]; lung cancer cells treated with ascorbate and iron chelators", "value": "enhance responses to cancer therapy"}]}, {"molecule": "O=S(=O)([O-])[O-].O=S(=O)([O-])[O-].[Fe+2].[NH4+].[NH4+]", "note": "[FAS, ferrous ammonium sulfate]", "values": [{"measurement": "effect of the agent on ascorbate toxicity (clonogenic survival)", "setting": "[5]", "value": "sensitizes NHAs to ascorbate toxicity"}, {"measurement": "effect of the intracellular agent on ascorbate toxicity (clonogenic survival)", "setting": "[2]", "value": "sensitized cancer cells to ascorbate"}, {"measurement": "cellular LIP after FAS", "setting": "[6]", "value": "increases the LIP"}]}, {"molecule": "PEG-catalase: polyethylene glycol conjugated catalase which converts H2O2 into H2O and O2 (conjugate, UniProt P00432 2-527, looked up, PEG conjugate, polyethylene glycol conjugated catalase which converts H2O2 into H2O and O2) Catalase: ADNRDPASDQMKHWKEQRAAQKPDVLTTGGGNPVGDKLNSLTVGPRGPLLVQDVVFTDEMAHFDRERIPERVVHAKGAGAFGYFEVTHDITRYSKAKVFEHIGKRTPIAVRFSTVAGESGSADTVRDPRGFAVKFYTEDGNWDLVGNNTPIFFIRDALLFPSFIHSQKRNPQTHLKDPDMVWDFWSLRPESLHQVSFLFSDRGIPDGHRHMNGYGSHTFKLVNANGEAVYCKFHYKTDQGIKNLSVEDAARLAHEDPDYGLRDLFNAIATGNYPSWTLYIQVMTFSEAEIFPFNPFDLTKVWPHGDYPLIPVGKLVLNRNPVNYFAEVEQLAFDPSNMPPGIEPSPDKMLQGRLFAYPDTHRHRLGPNYLQIPVNCPYRARVANYQRDGPMCMMDNQGGAPNYYPNSFSAPEHQPSALEHRTHFSGDVQRFNSANDDNVTQVRTFYLKVLNEEQRKRLCENIAGHLKDAQLFIQKKAVKNFSDVHPEYGSRIQALLDKYNEEKPKNAVHTYVQHGSHLSAREKANL", "values": [{"measurement": "effect of the agent on ascorbate toxicity (clonogenic survival)", "setting": "[2]", "value": "inhibited cancer cell killing by ascorbate"}]}, {"molecule": "catalase: exogenous bovine catalase, 50 U mL^−1, added with ascorbate (protein, UniProt P00432 2-527, looked up) Catalase: ADNRDPASDQMKHWKEQRAAQKPDVLTTGGGNPVGDKLNSLTVGPRGPLLVQDVVFTDEMAHFDRERIPERVVHAKGAGAFGYFEVTHDITRYSKAKVFEHIGKRTPIAVRFSTVAGESGSADTVRDPRGFAVKFYTEDGNWDLVGNNTPIFFIRDALLFPSFIHSQKRNPQTHLKDPDMVWDFWSLRPESLHQVSFLFSDRGIPDGHRHMNGYGSHTFKLVNANGEAVYCKFHYKTDQGIKNLSVEDAARLAHEDPDYGLRDLFNAIATGNYPSWTLYIQVMTFSEAEIFPFNPFDLTKVWPHGDYPLIPVGKLVLNRNPVNYFAEVEQLAFDPSNMPPGIEPSPDKMLQGRLFAYPDTHRHRLGPNYLQIPVNCPYRARVANYQRDGPMCMMDNQGGAPNYYPNSFSAPEHQPSALEHRTHFSGDVQRFNSANDDNVTQVRTFYLKVLNEEQRKRLCENIAGHLKDAQLFIQKKAVKNFSDVHPEYGSRIQALLDKYNEEKPKNAVHTYVQHGSHLSAREKANL", "values": [{"measurement": "effect of the agent on ascorbate toxicity (clonogenic survival)", "setting": "[1]", "value": "inhibited"}, {"measurement": "effect of the agent on ascorbate toxicity (clonogenic survival)", "setting": "[7]", "value": "inhibited"}, {"measurement": "effect of the agent on ascorbate toxicity (clonogenic survival)", "setting": "[2]", "value": "inhibited"}, {"measurement": "effect of the agent on ascorbate toxicity (clonogenic survival)", "setting": "[8]", "value": "inhibited"}]}]}
